According to patent publication US20170281653A1, “DERMOCOSMETIC OR PHARMACEUTICAL USE OF A COMPOSITION CONTAINING AT LEAST ONE INHIBITOR OF CERTAIN CHEMOKINES” (GREENPHARMA, priority 2014, published 2017):
Read-outs that look alike come from different tables or passages of the source.

What was measured:
CCL22 [1] = target: T1, CCL22 (Homo sapiens, UniProt O00626); test: Interaction affinity by fluorescence extinction of tryptophan residues of CCL22; assay type: binding; settings: for Kd: CCL22 1.5 μm, HEPES buffer without albumin, 20° C., biphasic titration curve; for Fluorescence extinction of CCL22 (tryptophan intrinsic fluorescence): excitation 285 nm, emission 300-400 nm, FIG. 4
T1 sequence (O00626 25-93): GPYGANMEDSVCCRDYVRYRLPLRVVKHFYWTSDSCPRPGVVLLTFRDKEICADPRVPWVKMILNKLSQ
Description: Briefly: the fluorescence measurements are carried out on a spectrofluorimeter Fluorolog 3 (JobinYvon/Spex) in a quartz cuvette. CCL22 (1.5 μm (HEPES buffer without albumin) in 1 mL final volume) is excited at 285 nm and its emission spectrum is recorded between 300 and 400 nm after each addition of an aliquot of molecule to be tested (1 μm). The measurements are carried out at 20° C. and the solutions are stirred using a magnetic stir bar. The recorded emission spectra are corrected by subtraction of the emission spectrum of the compound to be tested alone.

CCL22 [2] = target: T1, CCL22; test: Inhibition of intracellular calcium response (INDO-1) induced by CCL22 in HEK 293 cells expressing EGFP-CCR4 and Gqi5; assay type: cell-based; parameters: purchased; host or cells: HEK 293 cells stably expressing EGFP-CCR4, transiently transfected with Gqi5; settings: HEK 293 cells expressing CCR4; 5 nM CCL22; compound concentration not given
Description: In order to enable an easy recording of the responses associated to the CCR4 receptor, the cDNA which allows its expression is cloned in the plasmid pIRES (ClonTech) in fusion with the GFP protein, according to Vollmer et al. (1999), which enables to easily measure the expression of the chimeric EGFP-CCR4 receptor. HEK 293 cells (ATCC) are cultured in minimal essential medium MEM (Invitrogen) in the presence of 10% of fetal calf serum (Gibco-BRL), 100 U/mL of penicillin (Invitrogen), 100 αg/mL of streptomycin (Invitrogen) and 2 mM of L-glutamine (Invitrogen) at 37° C. in water-saturated atmosphere and containing 5% of 002. The cells are transfected according to the calcium phosphate precipitate method of Chen ant Okayama, 1986, and the cells having incorporated the expression plasmid are selected with 600 αg/mL of geneticin G-418 (PAA) for 5 weeks. The clones are selected after having been characterized by fluorescence microscopy and cytometric analysis by FACS (fluorescence assisted cell sorting). In order to enable an easy recording of the cell responses associated to the CCR4 receptor, we modify its natural coupling to the inhibition of AMPc production to a coupling to the phospholipase C which enables calcium measurements. We produce for this purpose the chimeric protein Gqi5 by directed mutagenesis of the 5 las amino acids of Gq replaced by their homologues of Gi. The cells expressing the CCR4 receptor are transfected with the plasmid pCNA3.1 in which the cDNA encoding Gqi5 has been incorporated. The recordings of calcium responses are performed the day after de transfection. The cells are loaded with a fluorescent calcium indicator, INDO-1, according to the protocol provided by the provider (Molecular probes), distributed in microplate wells and placed in a fluorescence reader-pipettor (FlexStation, Molecular devices). Intracellular calcium elevation is measured by fluorescence intensity change at 401 and 475 nm (excitation 355 nm). Measure points are recorded every 5 s for 150 s for each well. The molecules are tested in the presence of 5 nM of chemokine CCL22 (commercial). […] The response develops in a few seconds and fades with time for reaching the return in approximately 2 minutes for a chemokine CCL22 concentration of 5 to 10 nM in HEK 293 cells expressing CCR4. If the molecules to be tested are preincubated with chemokine [CK+N] and if the mixture is added to the cells, we observe a strong decrease in the amplitude of the response if the molecule to be tested is a neutralizing ligand of the chemokine. Conversely, when the neutralizing ligand is preincubated with the cells expressing the receptor [CKR+N] we observe a much smaller decrease of the amplitude of the response. The apparent affinity of the GPN136 molecules is determined by the establishment of a dose-effect relationship of the inhibition of the calcium response as presented in FIG. 2 and the results obtained are reported in table 1.

Hacat cells [3] = test: Metabolic activity test (WST-1 assay), in vitro cytotoxic activity; assay type: cell-based, human; settings: 0.3 μM, 10 μM or 30 μM, 72 hours, FIG. 7
From the text: The metabolic activity test is a colorimetric test (WST-1 assay—Ozyme) based on the measurement of the activity of the mitochondrial enzyme succinate-tetrazolium reductase cleaving the tetrazolium salt WST-1 ((4-[3-(4-Iodophenyl)-2-(4-nitrophenyl)-2H-5-tetrazolio]-1,3 benzene disulfonate)) in a water-soluble derivative called formazan, a dye which absorbs light in the range of 420-480 nm. Hacat cells are distributed at the rate of 200,000 cells per well in a culture plate of 24 wells, in a final volume of 500 μL. They are cultured for 24 hours before adding mitomycin C (1 μg/ml) and the compound to be tested. The culture plate is incubated for 72 hours at 37° C., 5% CO2, in water-saturated atmosphere. […] The plates are stirred to homogenize the color in the wells and the absorbance is measured at 450 nm in the multiwell-plate reader. […] As enzymatic activity requires cellular integrity, the absorbance will be all the stronger as the metabolic state of the cells is good.
In vitro cytotoxic activity: the Hacat cell cultures are treated with different concentrations of molecule: 0.3 μM (dark gray bars), 10 μM (light gray bars) or 30 μM (white bars) of GPN 136 and GPN 025 molecules. The activity of the mitochondrial enzyme formazan-reductase is recorded using the chromogenic substrate WST-1 which turns into a colored product, called formazan, detected at 450 nm.

CCL17 = target: T2, CCL17 (Homo sapiens, UniProt Q92583); test: Inhibition of intracellular calcium response (INDO-1) induced by CCL17 in HEK 293 cells expressing CCR4; assay type: cell-based; settings: compound concentration not given
T2 construct: host or cells: HEK 293 cells expressing EGFP-CCR4 (and Gqi5)
T2 sequence (Q92583 24-94): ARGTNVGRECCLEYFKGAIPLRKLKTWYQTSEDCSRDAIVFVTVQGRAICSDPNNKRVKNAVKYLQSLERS
Description: In order to enable an easy recording of the responses associated to the CCR4 receptor, the cDNA which allows its expression is cloned in the plasmid pIRES (ClonTech) in fusion with the GFP protein, according to Vollmer et al. (1999), which enables to easily measure the expression of the chimeric EGFP-CCR4 receptor. HEK 293 cells (ATCC) are cultured in minimal essential medium MEM (Invitrogen) in the presence of 10% of fetal calf serum (Gibco-BRL), 100 U/mL of penicillin (Invitrogen), 100 αg/mL of streptomycin (Invitrogen) and 2 mM of L-glutamine (Invitrogen) at 37° C. in water-saturated atmosphere and containing 5% of 002. The cells are transfected according to the calcium phosphate precipitate method of Chen ant Okayama, 1986, and the cells having incorporated the expression plasmid are selected with 600 αg/mL of geneticin G-418 (PAA) for 5 weeks. The clones are selected after having been characterized by fluorescence microscopy and cytometric analysis by FACS (fluorescence assisted cell sorting). In order to enable an easy recording of the cell responses associated to the CCR4 receptor, we modify its natural coupling to the inhibition of AMPc production to a coupling to the phospholipase C which enables calcium measurements. We produce for this purpose the chimeric protein Gqi5 by directed mutagenesis of the 5 las amino acids of Gq replaced by their homologues of Gi. The cells expressing the CCR4 receptor are transfected with the plasmid pCNA3.1 in which the cDNA encoding Gqi5 has been incorporated. The recordings of calcium responses are performed the day after de transfection. The cells are loaded with a fluorescent calcium indicator, INDO-1, according to the protocol provided by the provider (Molecular probes), distributed in microplate wells and placed in a fluorescence reader-pipettor (FlexStation, Molecular devices). Intracellular calcium elevation is measured by fluorescence intensity change at 401 and 475 nm (excitation 355 nm). Measure points are recorded every 5 s for 150 s for each well. The molecules are tested in the presence of 5 nM of chemokine CCL22 (commercial). […] The response develops in a few seconds and fades with time for reaching the return in approximately 2 minutes for a chemokine CCL22 concentration of 5 to 10 nM in HEK 293 cells expressing CCR4. If the molecules to be tested are preincubated with chemokine [CK+N] and if the mixture is added to the cells, we observe a strong decrease in the amplitude of the response if the molecule to be tested is a neutralizing ligand of the chemokine. Conversely, when the neutralizing ligand is preincubated with the cells expressing the receptor [CKR+N] we observe a much smaller decrease of the amplitude of the response. Analysis of the molecules selectivity is carried out by measuring the inhibition of the response evoked by other chemokines on their respective receptors thus, in FIG. 3, the molecules have been tested on the pairs CCL2/CCR2, CCL3/CCR5, CCL17/CCR4, CCL22/CCR4, […], CXCL10/CXCR2, CXCL11/CXCR3, CXCL12/CXCR4.

Hacat cells [4] = test: Human keratinocyte migration assay (in vitro wound-healing test in a cell monolayer, scratch, IncuCyte); assay type: cell-based; settings: 100 ng/ml CCL22, 72 h, mitomycin 1 μg/ml, FIG. 5
From the text: The activity of the GPN 136 molecule has been evaluated in a human keratinocytes migration assay performed according to an in vitro wound-healing test in a cell monolayer. It is actually known that, in these chronic pathologies, an important cell migration may promote de formation of pruritus, one of the signs of dermatosis. The immortalized human keratinocytes obtained from the DKFZ (Heidelberg, Germany) are cultivated in Dulbecco medium modified by Eagle (DMEM, Invitrogen) supplemented with 10% of fetal calf serum (Gibco-BRL) and 100 U/ml of penicillin (Invitrogen), 100 μg/ml of streptomycin (Invitrogen) and 2 mM of L glutamine (Invitrogen) at 37° C. and 5% of CO2. The wells of a culture plate of 24 well are inoculated with 200,000 cells and the culture is maintained until formation of a confluent cell monolayer. The cell monolayer is then damaged by performing a linear gap (scratch) using a sterile pipette head of 0.1-10 μL. […] The effect of the molecules alone is also recorded in different wells. […]
The culture plates are arranged in the IncuCyte apparatus which records the growth on the cell monolayer by transmitted imaging in cell culture conditions (37° C., 5% CO2, water-saturated atmosphere) for 72 h. […] Healing is defined (quantified) as the ratio of the width of the scar at time t and time 0. […]

Structure (SMILES)	Inhibition of calcium responses induced by CCL22 (%) (CCL22 [2])	Inhibition of calcium responses induced by CCL17 (%) (CCL17)	also measured
O=C(OCC(O)CO)c1ccccc1O (stereo not shown) [GPN136, 2,3-dihydroxypropyl 2-hydroxybenzoate]	35 ± 8	0	Kd (CCL22 [1]; read-out: KD, second site): 53 µM; Kd (CCL22 [1]; read-out: KD, site of high affinity): < 0.05 µM; Fluorescence extinction of CCL22 (tryptophan intrinsic fluorescence) (CCL22 [1]): fluorescence extinction of CCL22 is observed; Effect on mitochondrial enzymatic activity / cellular metabolism (WST-1, 450 nm) (Hacat cells [3]): does not affect enzymatic activity; Effect on CCL22-accelerated cell migration (Hacat cells [4]): abolished
O=C(O)c1ccccc1O [GPN0001207]	0	0	–
CC(=O)Oc1ccccc1C(=O)O [Acetylsalicylic acid, reference compound]	0	0	–
COc1cc2nc(N3CCC(N4CCCCC4)CC3)nc(NC3CCCCCC3)c2cc1OC [C-021, reference compound]	–	–	Fluorescence extinction of CCL22 (tryptophan intrinsic fluorescence) (CCL22 [1]): no signal

Continued, in another order:

Inhibition of calcium responses induced by CCL22 (%) (CCL22 [2])	Inhibition of calcium responses induced by CCL17 (%) (CCL17)	Structure (SMILES)	also measured
40 ± 5	0	O=C(OCC(O)CO)c1ccccc1O (stereo in doubt) [GPS008506, (S)-2,3-dihydroxypropyl 2-hydroxybenzoate]	–
10 ± 5	0	O=C(OCC(O)COC(=O)c1ccccc1O)c1ccccc1O [GPS008504]	–
37 ± 6	0	O=C(OCC(O)CO)c1ccccc1O (stereo in doubt) [GPS008505, (R)-2,3-dihydroxypropyl 2-hydroxybenzoate]	–
0	0	O=C(OC[C@H](O)CO)c1ccccc1 [GPS008508]	–
0	0	O=C(OC[C@@H](O)CO)c1ccccc1 [GPS008507]	–
